Measurements reported in publication PMC3510490, “Structure of Actin-related protein 8 and its contribution to nucleosome binding” (Nucleic Acids Research, 2012).

What was measured:
[1] = target: T1, Saccharomyces cerevisiae INO80 sub-complex I (Arp8–Arp4–actin-HSA) (Saccharomyces cerevisiae, UniProt P60010+Q12386); assay: […] phosphate release, TLC; type: biochemical; settings: 100 µM ATP with 5 nM [γ-32P]ATP (labelled compound), 2 mM MgCl2, pH 7.9, 30 °C; active subunit not resolved (Arp8 and/or actin)
T1 construct: co-expressed Arp4, Arp8, actin and His6-Ino80(462-685) in HighFive insect cells; monomeric complex; with Actin-related protein 4; Chromatin-remodeling ATPase INO80

yeast Arp8 = target: T2, yeast Arp8 (Saccharomyces cerevisiae, UniProt Q12386); assay: […] phosphate release, TLC; type: biochemical; settings: 100 µM ATP with 5 nM [γ-32P]ATP (labelled compound), 2 mM MgCl2, pH 7.9, 30 °C
T2 construct: recombinant from HighFive insect cells, prepared as described previously; monomer
T2 sequence (Q12386 1-881): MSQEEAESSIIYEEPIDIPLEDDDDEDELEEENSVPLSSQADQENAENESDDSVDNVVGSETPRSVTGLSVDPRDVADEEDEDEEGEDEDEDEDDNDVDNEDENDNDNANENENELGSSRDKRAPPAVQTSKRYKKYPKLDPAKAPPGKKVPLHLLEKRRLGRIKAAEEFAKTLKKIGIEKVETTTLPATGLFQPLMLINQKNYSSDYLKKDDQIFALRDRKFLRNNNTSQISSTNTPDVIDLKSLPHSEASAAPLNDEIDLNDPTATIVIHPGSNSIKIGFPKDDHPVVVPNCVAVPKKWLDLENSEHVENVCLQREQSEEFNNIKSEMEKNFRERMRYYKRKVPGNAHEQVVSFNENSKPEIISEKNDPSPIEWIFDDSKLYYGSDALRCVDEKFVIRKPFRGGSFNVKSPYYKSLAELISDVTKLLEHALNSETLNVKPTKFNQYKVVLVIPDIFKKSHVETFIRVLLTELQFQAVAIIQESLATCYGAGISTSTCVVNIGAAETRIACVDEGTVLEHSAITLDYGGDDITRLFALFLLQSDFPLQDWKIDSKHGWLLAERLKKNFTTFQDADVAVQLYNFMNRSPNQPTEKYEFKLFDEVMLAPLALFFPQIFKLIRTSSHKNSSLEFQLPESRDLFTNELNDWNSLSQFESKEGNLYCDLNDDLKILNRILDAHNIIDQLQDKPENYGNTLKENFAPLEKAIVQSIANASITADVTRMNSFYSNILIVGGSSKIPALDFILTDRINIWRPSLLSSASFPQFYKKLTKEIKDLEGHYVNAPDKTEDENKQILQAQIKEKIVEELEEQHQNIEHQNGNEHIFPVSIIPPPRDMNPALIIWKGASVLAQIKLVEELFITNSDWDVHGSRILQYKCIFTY

[2] = target: T3, Homo sapiens Arp8 (Δ1–33) (Homo sapiens, UniProt Q9H981); assay: X-ray crystal structure, […] Å; settings: ATP co-purified from expression host, not added; one metal ion (likely Mg2+); nucleotide-binding cleft; pH 6.1
T3 construct: gene ACTR8; N-terminal 8xHis tag cleaved by PreScission protease; E. coli BL21(DE3); monomer

human Arp8 = target: T4, human Arp8 (Homo sapiens, UniProt Q9H981); assay: […] phosphate release, TLC; type: biochemical; settings: 100 µM ATP with 5 nM [γ-32P]ATP (labelled compound), 2 mM MgCl2, pH 7.9, 30 °C; construct (full-length or Δ1-33) not stated
T4 construct: gene ACTR8; monomer
T4 sequence (Q9H981 whole entry): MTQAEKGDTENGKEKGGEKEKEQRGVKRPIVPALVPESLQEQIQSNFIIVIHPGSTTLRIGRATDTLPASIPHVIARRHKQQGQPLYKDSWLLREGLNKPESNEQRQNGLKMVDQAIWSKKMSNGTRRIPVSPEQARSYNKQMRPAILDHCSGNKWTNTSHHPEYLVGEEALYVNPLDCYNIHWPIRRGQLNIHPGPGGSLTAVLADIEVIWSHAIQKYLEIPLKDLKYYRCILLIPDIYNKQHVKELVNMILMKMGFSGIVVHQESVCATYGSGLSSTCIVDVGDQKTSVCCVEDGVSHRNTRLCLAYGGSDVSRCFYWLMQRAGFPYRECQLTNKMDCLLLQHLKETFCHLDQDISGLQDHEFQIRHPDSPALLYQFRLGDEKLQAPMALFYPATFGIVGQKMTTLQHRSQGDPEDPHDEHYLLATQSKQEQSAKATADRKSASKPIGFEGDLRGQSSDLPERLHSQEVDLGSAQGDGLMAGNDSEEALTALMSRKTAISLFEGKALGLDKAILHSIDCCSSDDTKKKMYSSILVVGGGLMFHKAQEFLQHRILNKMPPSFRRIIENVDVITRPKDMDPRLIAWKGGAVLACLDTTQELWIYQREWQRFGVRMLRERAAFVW

T3 sequence (Q9H981 34-624, stated change not applied): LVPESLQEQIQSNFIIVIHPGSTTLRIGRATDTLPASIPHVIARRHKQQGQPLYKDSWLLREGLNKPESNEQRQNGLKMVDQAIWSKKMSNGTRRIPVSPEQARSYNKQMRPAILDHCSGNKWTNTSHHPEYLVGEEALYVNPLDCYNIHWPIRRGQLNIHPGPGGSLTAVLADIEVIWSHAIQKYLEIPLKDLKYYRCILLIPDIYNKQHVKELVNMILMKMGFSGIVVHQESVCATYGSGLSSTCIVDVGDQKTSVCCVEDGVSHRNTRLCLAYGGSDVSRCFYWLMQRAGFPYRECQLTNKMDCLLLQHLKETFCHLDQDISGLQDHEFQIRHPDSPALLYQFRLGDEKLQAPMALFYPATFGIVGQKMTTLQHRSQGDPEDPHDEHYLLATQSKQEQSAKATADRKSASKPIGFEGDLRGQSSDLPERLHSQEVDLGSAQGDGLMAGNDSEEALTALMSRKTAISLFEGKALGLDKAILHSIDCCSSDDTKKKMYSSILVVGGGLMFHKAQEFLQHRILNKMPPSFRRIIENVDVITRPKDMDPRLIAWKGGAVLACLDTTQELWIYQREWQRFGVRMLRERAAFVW

Nc1ncnc2c1ncn2[C@@H]1O[C@H](COP(=O)(O)OP(=O)(O)OP(=O)(O)O)[C@@H](O)[C@H]1O [ATP]
low basal ATPase activity [1]: sub-complex I (Arp8–Arp4–actin-HSA) also shows a low basal ATPase activity | low basal ATPase activity (yeast Arp8): yeast and human Arp8 possess a low basal ATPase activity | X-ray crystal structure, 2.6 Å [2]: Electron density in the nucleotide-binding cleft of actin could clearly be assigned to ATP | low basal ATPase activity (human Arp8): yeast and human Arp8 possess a low basal ATPase activity
